Measurements published in PubChem BioAssay AID330 (DTP/NCI, 2004).
Several values for one entry are separate records, joined by “and”; a condition that tells them apart may be missing. Identical values can stand only once. Toxic doses and inconclusive results are not listed. The calls were made as follows: active = survival T/C of 150% or more; inactive = T/C below 125% in these data.

Test system: P388 leukemia ip, CD2F1 mice, survival T/C
Experiment: NCI In Vivo Anticancer Drug Screen. Data for tumor model P388 Leukemia (intraperitoneal) in CD2F1 (CDF1) mice
Conditions: endpoint: median survival time, higher = longer survival
How it was run: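 Mice carrying the transplanted tumor received test compound or vehicle. Survival was recorded in each group, and the value is the treated-group measurement divided by that of the vehicle-treated control group.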

[1] = dose: 60.0 mg/kg/injection, schedule: Q01DX005 (ip), vehicle: saline with Tween-80
[2] = dose: 120.0 mg/kg/injection, schedule: Q01DX005 (ip), vehicle: saline with Tween-80
[3] = dose: 240.0 mg/kg/injection, schedule: Q01DX005 (ip), vehicle: saline with Tween-80
[4] = dose: 50.0 mg/kg/injection, schedule: Q01DX009 (ip), vehicle: Klucel (hydroxypropylcellulose) (HPC)
[5] = dose: 100.0 mg/kg/injection, schedule: Q01DX009 (ip), vehicle: Klucel (hydroxypropylcellulose) (HPC)
[6] = dose: 50.0 mg/kg/injection, schedule: Q01DX009 (ip), vehicle: saline with Tween-80
[7] = dose: 50.0 mg/kg/injection, schedule: Q04DX003 (ip), vehicle: saline with Tween-80
[8] = dose: 100.0 mg/kg/injection, schedule: Q01DX009 (ip), vehicle: saline with Tween-80
[9] = dose: 100.0 mg/kg/injection, schedule: Q04DX003 (ip), vehicle: saline with Tween-80
[10] = dose: 50.0 mg/kg/injection, schedule: Q01DX005 (ip), vehicle: saline with Tween-80
[11] = dose: 200.0 mg/kg/injection, schedule: Q01DX005 (ip), vehicle: saline with Tween-80
[12] = dose: 200.0 mg/kg/injection, schedule: Q01DX009 (ip), vehicle: saline with Tween-80
[13] = dose: 25.0 mg/kg/injection, schedule: Q01DX009 (ip), vehicle: other
[14] = dose: 25.0 mg/kg/injection, schedule: Q04DX003 (ip), vehicle: other
[15] = dose: 50.0 mg/kg/injection, schedule: Q04DX003 (ip), vehicle: other
[16] = dose: 100.0 mg/kg/injection, schedule: Q04DX003 (ip), vehicle: other
[17] = dose: 50.0 mg/kg/injection, schedule: Q01DX009 (ip), vehicle: saline
[18] = dose: 100.0 mg/kg/injection, schedule: Q01DX009 (ip), vehicle: saline

Measured: T/C

CC(=O)O[C@@H]1CCC2CCC1N2C (stereo not given in full)
inactive: dose: 50.0 mg/kg/injection, schedule: Q01DX005 (ip), vehicle: saline 97 % of control | dose: 100.0 mg/kg/injection, schedule: Q01DX005 (ip), vehicle: saline 95 % of control | dose: 200.0 mg/kg/injection, schedule: Q01DX005 (ip), vehicle: saline 95 % of control

O=C(NN1C(=O)CSC1c1ccc(F)cc1)c1ccncc1 (stereo not given)
inactive: [1] 99 % of control | [2] 100 % of control | [3] 92 % of control

Cn1c(-c2ccccc2)cc2cc(CN)ccc21
inactive: [4] 100 % of control | [5] 100 % of control

[Cl][Pt+2][Cl].[NH-]c1cccc(C(F)(F)F)c1.[NH-]c1cccc(C(F)(F)F)c1
inactive: dose: 3.12 mg/kg/injection, schedule: Q01DX009 (ip), vehicle: Klucel (hydroxypropylcellulose) (HPC) 103 % of control and 111 % of control | dose: 6.25 mg/kg/injection, schedule: Q01DX009 (ip), vehicle: Klucel (hydroxypropylcellulose) (HPC) 97 % of control | dose: 12.5 mg/kg/injection, schedule: Q01DX009 (ip), vehicle: Klucel (hydroxypropylcellulose) (HPC) 111 % of control | dose: 25.0 mg/kg/injection, schedule: Q01DX009 (ip), vehicle: Klucel (hydroxypropylcellulose) (HPC) 106 % of control

Nc1nc2[nH]ncc2c(=O)[nH]1
inactive: dose: 25.0 mg/kg/injection, schedule: Q01DX009 (ip), vehicle: saline with Tween-80 90 % of control | [6] 100 % of control | [7] 104 % of control | [8] 90 % of control | [9] 109 % of control

[N-]=[N+]=NC(c1ccccc1)n1nnnc1-c1ccccc1 (stereo not given)
inactive: dose: 100.0 mg/kg/injection, schedule: Q01DX001 (ip), vehicle: Klucel (hydroxypropylcellulose) (HPC) 101 % of control and 88 % of control | dose: 200.0 mg/kg/injection, schedule: Q01DX001 (ip), vehicle: Klucel (hydroxypropylcellulose) (HPC) 102 % of control and 95 % of control | dose: 400.0 mg/kg/injection, schedule: Q01DX001 (ip), vehicle: Klucel (hydroxypropylcellulose) (HPC) 98 % of control and 120 % of control

COc1ccc2nccc(/C=C/c3ccnc4ccc(OC)cc34)c2c1
inactive: [10] 103 % of control | dose: 100.0 mg/kg/injection, schedule: Q01DX005 (ip), vehicle: saline with Tween-80 103 % of control | [11] 100 % of control

Clc1ncccc1SSc1cccnc1Cl
inactive: [6] 104 % of control | [8] 100 % of control | [12] 104 % of control

COc1ccc(C(=O)CC(=O)CCC(=O)Nc2cc(C)ccc2C)cc1
inactive: [1] 101 % of control | [2] 105 % of control | [3] 97 % of control

COc1ccc(C2CC(c3ccccc3)=Nc3ccccc3S2)cc1 (stereo not given)
inactive: [4] 101 % of control | [5] 108 % of control | dose: 200.0 mg/kg/injection, schedule: Q01DX009 (ip), vehicle: Klucel (hydroxypropylcellulose) (HPC) 108 % of control

C=CCC(O)C(=O)OC1CC(C)CCC1C(C)(C)c1ccccc1 (stereo not given)
inactive: [1] 106 % of control | [2] 100 % of control | [3] 107 % of control

N#Cc1nccnc1Cl
inactive: [13] 95 % of control | [14] 100 % of control | dose: 50.0 mg/kg/injection, schedule: Q01DX009 (ip), vehicle: other 100 % of control | [15] 100 % of control | dose: 100.0 mg/kg/injection, schedule: Q01DX009 (ip), vehicle: other 100 % of control | [16] 100 % of control

O=C1CN(c2cccc(Cl)c2)C(=O)CN1/N=C/c1cccnc1
inactive: dose: 25.0 mg/kg/injection, schedule: Q01DX005 (ip), vehicle: saline with Tween-80 96 % of control | [10] 87 % of control and 91 % of control | [11] 87 % of control

Cc1cnc(Cl)nc1Sc1nc(N)nc2nc[nH]c12
inactive: dose: 12.5 mg/kg/injection, schedule: Q01DX009 (ip), vehicle: saline with Tween-80 122 % of control | [9] 100 % of control
active: dose: 4.0 mg/kg/injection, schedule: Q01DX009 (ip), vehicle: saline with Tween-80 150 % of control | dose: 25.0 mg/kg/injection, schedule: Q04DX003 (ip), vehicle: saline with Tween-80 154 % of control | [7] 159 % of control

NC(=O)C1CC(O)CN1C(=O)c1cccnc1 (stereo not given)
inactive: dose: 60.0 mg/kg/injection, schedule: Q01DX005 (ip), vehicle: saline 101 % of control | dose: 120.0 mg/kg/injection, schedule: Q01DX005 (ip), vehicle: saline 100 % of control | dose: 240.0 mg/kg/injection, schedule: Q01DX005 (ip), vehicle: saline 93 % of control

CCCCCC(/C=C/C1C(O[Si](C)(C)C(C)(C)C)CC(N(C)C)C1(C/C=C/CCCC#N)S(=O)(=O)c1ccccc1)O[Si](C)(C)C(C)(C)C (stereo not given)
inactive: dose: 60.0 mg/kg/injection, schedule: Q01DX005 (ip), vehicle: Klucel (hydroxypropylcellulose) (HPC) 86 % of control | dose: 120.0 mg/kg/injection, schedule: Q01DX005 (ip), vehicle: Klucel (hydroxypropylcellulose) (HPC) 86 % of control

C=C(C)C12OC3(c4ccccc4)OC1C1C4OC4(CO)C(O)C4(O)C(=O)C(C)=CC4C1(O3)C(C)C2OC(=O)c1ccccc1 (stereo not given)
inactive: dose: 0.1 mg/kg/injection, schedule: Q01DX009 (ip), vehicle: saline 91 % of control | dose: 0.2 mg/kg/injection, schedule: Q01DX009 (ip), vehicle: saline 100 % of control | dose: 0.4 mg/kg/injection, schedule: Q01DX009 (ip), vehicle: saline 90 % of control | dose: 0.8 mg/kg/injection, schedule: Q01DX009 (ip), vehicle: saline 96 % of control

Cc1c2ccccc2cc2c1ccc1ccccc12
inactive: dose: 17.5 mg/kg/injection, schedule: Q01DX009 (ip), vehicle: saline with Tween-80 116 % of control | [14] 100 % of control | dose: 35.0 mg/kg/injection, schedule: Q01DX009 (ip), vehicle: saline with Tween-80 122 % of control | [15] 100 % of control | [16] 102 % of control | dose: 200.0 mg/kg/injection, schedule: Q04DX003 (ip), vehicle: other 102 % of control | dose: 400.0 mg/kg/injection, schedule: Q04DX003 (ip), vehicle: other 107 % of control
active: dose: 70.0 mg/kg/injection, schedule: Q01DX009 (ip), vehicle: saline with Tween-80 152 % of control

CCCCCCCCCCCCCCCCC[N+]1(CC)CCCCC1
inactive: dose: 0.39 mg/kg/injection, schedule: Q01DX009 (ip), vehicle: saline 111 % of control | dose: 0.78 mg/kg/injection, schedule: Q01DX009 (ip), vehicle: saline 116 % of control

CC(Sc1ccccc1)C(=O)N1CCCC1 (stereo not given)
inactive: [6] 106 % of control | [8] 103 % of control | [12] 105 % of control

Cc1n[nH]c(=S)n1C
inactive: dose: 43.75 mg/kg/injection, schedule: Q04DX003 (ip), vehicle: saline sonified 95 % of control | dose: 87.5 mg/kg/injection, schedule: Q04DX003 (ip), vehicle: saline sonified 100 % of control | dose: 175.0 mg/kg/injection, schedule: Q04DX003 (ip), vehicle: saline sonified 90 % of control

CC(=O)N(C)N=Nc1ccc(C)cc1
inactive: [17] 100 % of control and 121 % of control and 123 % of control | [18] 100 % of control and 118 % of control and 121 % of control

Cc1ccc(/C=N/O)cc1
inactive: dose: 25.0 mg/kg/injection, schedule: Q01DX005 (ip), vehicle: Klucel (hydroxypropylcellulose) (HPC) 97 % of control | dose: 50.0 mg/kg/injection, schedule: Q01DX005 (ip), vehicle: Klucel (hydroxypropylcellulose) (HPC) 98 % of control | dose: 100.0 mg/kg/injection, schedule: Q01DX005 (ip), vehicle: Klucel (hydroxypropylcellulose) (HPC) 99 % of control | dose: 200.0 mg/kg/injection, schedule: Q01DX005 (ip), vehicle: Klucel (hydroxypropylcellulose) (HPC) 98 % of control

CN(C)C1=NC1(C)C
inactive: [17] 100 % of control | [18] 102 % of control | dose: 200.0 mg/kg/injection, schedule: Q01DX009 (ip), vehicle: saline 91 % of control

COc1ccc2ccc(/C=C/[N+](=O)[O-])cc2c1OC
inactive: dose: 3.13 mg/kg/injection, schedule: Q01DX009 (ip), vehicle: other 109 % of control | dose: 6.25 mg/kg/injection, schedule: Q01DX009 (ip), vehicle: other 108 % of control | dose: 12.5 mg/kg/injection, schedule: Q01DX009 (ip), vehicle: other 110 % of control | [13] 106 % of control

N=C=S.N=C=S.O=[N+]([O-])O.[Co+3].[NH2-].[NH2-].[NH2-].[NH2-]
inactive: [4] 113 % of control

CC1CNC(=O)NC1=O (stereo not given)
inactive: [6] 94 % of control | [8] 86 % of control
